For orientation: half-life means how long it takes for the measured level to halve. Low values mean rapid decline, high ones slow decline. The term IC50 denotes the concentration that gives 50% inhibition.

Series [1] in a line: Half-life time was determined. Type of series: ADME.
Series [2] relates to HT-29. Description: In vitro inhibitory concentration required against HT-29 human colon cancer cells. Type of series: functional, cell-based.
In series [3] the test system is HT-29. Description: In vitro inhibitory concentration required against HT-29 human colon cancer cells in the presence of beta-D-glucuronidase. Type of series: functional, cell-based.

Structures are written as SMILES.

In series [1], `CCc1c2c(nc3ccc(OC(=O)N(C)c4cc([N+](=O)[O-])ccc4OC4CC(C(=O)O)C(O)C(O)C4O)cc13)C1CC3=C(COC(=O)[C@]3(O)CC)C(=O)N1C2` (some centres undefined) came in with a half-life of 12.7 min. The figures for the IC50 in the series with HT-29 [2] and in the series with HT-29 [3] were 1.98 µM and 0.026 µM, respectively.
`CCc1c2c(nc3ccc(O)cc13)-c1cc3c(c(=O)n1C2)COC(=O)[C@]3(O)CC` [7-ETHYL-10-HYDROXYCAMPTOTHECIN] returned an IC50 with HT-29 [2] of 0.0273 µM.

Values taken from ChEMBL document CHEMBL1136630, “Cancer chemotherapy: a SN-38 (7-ethyl-10-hydroxycamptothecin) glucuronide prodrug for treatment by a PMT (Prodrug MonoTherapy) strategy” (Bioorg Med Chem Lett, 2003).
